These results are taken from patent US12448352B2, “Beta adrenergic agonist and methods of using the same” (Curasen Therapeutics, Inc., priority 2019, dated 2025).

The subject of data set [1] is MDCK-MDR1 cells. The data set is described as follows: MDCK-MDR1 permeability assay. It counts as in vitro ADME. Also noted: A-B (Papp apical to basolateral) / B-A (Papp basolateral to apical): unit not given here. Here is the method: Preparation of MDCK-MDR1 Cells. Cell culture medium of was added to each well of the Transwell insert (50 μL) and reservoir (25 mL). The HTS transwell plates were then incubated at 37° C., 5% CO2 for 1 hour before cell seeding. MDCK-MDR1 cells were diluted to 1.56×10^6 cells/mL with culture medium and 50 μL of cell suspension were dispensed into the filter well of the 96-well HTS Transwell plate. Cells were cultivated for 4-8 days in a cell culture incubator at 37° C., 5% CO2, 95% relative humidity. Cell culture medium was replaced every other day, beginning no later than 24 hours after initial plating.
Preparation of Stock Solutions. 10 mM stock solutions of test compounds were prepared in DMSO. The stock solutions of positive controls were prepared in DMSO at the concentration of 10 mM. Metoprolol, prazosin and imatinib were used as control compounds in this assay.
Assessment of Cell Monolayer Integrity. Medium was removed from the reservoir and each Transwell insert and replaced with prewarmed fresh culture medium. Transepithelial electrical resistance (TEER) across the monolayer was measured using Millicell Epithelial Volt-Ohm measuring system (Millipore, USA). The Plate was returned to the incubator once the measurement was done. TEER value should be greater than 42 ohm·cm2, which indicates the well-qualified MDCK-MDR1 monolayer. The TEER value was calculated according to the following equation: TEER measurement (ohms)×Area of membrane (cm^2)=TEER value (ohm·cm^2)
Assay Procedures. The MDCK-MDR1 plate was removed from the incubator and washed twice with pre-warmed HBSS (10 mM HEPES, pH 7.4), and then incubated at 37° C. for 30 minutes. The stock solutions of test compounds and controls were diluted in DMSO to get 1 mM solutions and then diluted with HBSS (10 mM HEPES, pH 7.4) to get 5 μM working solutions. The final concentration of DMSO in the incubation system was 0.5%. […]

A short description of data set [2]: Mouse CNS exposure (plasma, CSF, brain). To be noted: SC 1 mg/kg, 60 min. The class given is in vivo, male C57BL/6J mice. Here is the method:
These rats were typically about 6-8 weeks old, weighing 200 g to 300 g. Animals were fasted overnight and free access to food 4 hours after dosing. A required volume of vehicle was added to reach the target concentration of the test article and vehicle component to prepare for the dosing. The dosing vehicle was PEG400 or 30% PEG400 in saline for IV, or 0.5% methylcellulose in water for PO. For IV dosing, the animals were administered intravenously via tail vein. For PO dosing, the animals were administered via oral gavage. After dosing, blood sample was collected (˜0.2 mL per time point) through jugular vein or heart puncture. Blood of each sample was transferred into plastic micro centrifuge tubes containing EDTA-K2. Collection tubes with blood samples and anticoagulant were inverted several times for proper mixing of the tube contents and then placed on wet ice. The blood samples were centrifuged at 2000 g for 5 minutes at 4° C. to obtain plasma which was stored in a freezer at −75±15° C. prior to analysis. Samples were analyzed using LC-MS/MS. WinNonlin were used for pharmacokinetic calculations.
For CSF sampling, after anesthesia, the foramen magnum was exposed, and a syringe was used with a venoclysis needle to sample the CSF. The CSF samples were stored in polypropylene tubes, then stored in a freezer at −75±15° C. prior to analysis.
For brain sampling, the rats were fully exsanguinated by using a risen of carbon dioxide prior to brain collection. Brain samples were then collected at adopted time point, quick frozen and kept at −75±15° C. All brain samples were weighted and homogenated with PBS by brain weight (g) to PBS volume (mL) ratio 1:3 before analysis. The actual concentration is the detected value multiplied by the dilution factor.
These mice were typically about 6-8 weeks old, weighing 20 g to 30 g. Animals were free access to food before dosing. Sample amount was ˜0.03 mL per time point and sample site was dorsal metatarsal or heart puncture.

Turning to `Cc1ncccc1[C@@H](O)CNC(C)(C)C` [Compound 03-115], in data set [1] (MDCK-MDR1, 5 μM, 2 hours), the “A-B (Papp apical to basolateral)” value came to 6.96 and the “B-A (Papp basolateral to apical)” value turned out to be 10.98. Also, in data set [1] (MDCK-MDR1, Papp (B-A)/Papp (A-B)), the “Efflux Ratio” value is listed as 1.58. In addition, in data set [2], the “Concentration, Brain” value was determined as 280 ng/g; the “Concentration, CSF” value was determined as 157 ng/mL; the “Concentration, Plasma” value is 270 ng/mL.
